The results in this text go back to ChEMBL document CHEMBL3507680, “University of Dundee, Gates Library screen for HepG2 cell viability”.

The data set is described as follows: Human HepG2 cell viability assay in 384 well format. The class given is toxicity, cell-based. On the set-up: dose 125 nL, time 70.5 hour; cytotoxicity at 70.5 h: concentration not given beside the values. Conditions: HepG2 cells, read-out: Inhibition.

Regarding `CCN(CC)S(=O)(=O)c1ccc(C(=O)NC(C)(C)C)cc1`, the cytotoxicity at 70.5 h was 35.7%.
On to `CCOCc1ccc(NC(=O)N2CCOC3(CCC3)C2)cc1`, for which the cytotoxicity at 70.5 h was -5.85%.
Regarding `CC(NC(=O)CCCN(C)C)c1cn(-c2ccccc2)nn1` (configuration not stated), the cytotoxicity at 70.5 h came out at 20.9%.
On to `CC(C)CCC(=O)N1CCC2(CC1)OCCO2`, for which the cytotoxicity at 70.5 h was -4.64%.
As for `CCCC(=O)N1CCC2(CC1)OCCO2`, the figure is -2.35%; as for `CN(C)c1cc(CNC(=O)CC2CCCCC2)ccn1`, -5.82%.
The same measure for `CNS(=O)(=O)c1ccc(C(=O)NCc2ccnc(OC)c2)cc1`: -10%; for `COc1cc(C)ccc1OCCC(=O)N1CCC(C(N)=O)C1` (configuration not stated): -10.8%.
With `NC(=O)C(Nc1ccc(Cl)cc1)c1ccc(F)cc1` (configuration not stated), the cytotoxicity at 70.5 h was -0.513%.
As to `O=C(NCCc1coc(-c2ccc(F)cc2)n1)NCC1CCOC1` (configuration not stated), the cytotoxicity at 70.5 h was found to be 20.9%.
As for `CNS(=O)(=O)CC(=O)NC(c1cc(C)sc1C)C(C)C` (configuration not stated), the figure is 2.55%; as for `Cc1cnn(Cc2ccc(NC(=O)N3CCCC3)cc2)c1`, -3.9%; as for `CCc1nc(Cn2c(=O)c3c(C(F)(F)F)cc(C)nc3n2C)no1`, 0.468%.
As for `Cc1cc(C(F)(F)F)c2c(=O)n(Cc3ccon3)n(C)c2n1`, the figure is -5.27%; as for `CC(O)(CNC(=O)NCCc1ccc2c(c1)CCO2)c1ccccc1` (configuration not stated), -0.353%.
Turning to `CSc1ccc(NC(=O)Cn2cc(N)cn2)cc1`, the cytotoxicity at 70.5 h is -6.5%.
As for `O=C(C1CC(c2cccc(F)c2)=NO1)N1CCc2ccccc21` (configuration not stated), the figure is -4.18%.
Consider `O=c1ccc(S(=O)(=O)N2CCCC2)cn1CC1CCCCO1` (configuration not stated), for which the cytotoxicity at 70.5 h was -11.1%.
As for `Cc1ccc(OCCn2cnc3oc(C)c(C(=O)O)c3c2=O)cc1`, the figure is 19.9%; as for `CCN(CC)c1nc2sc(C(=O)N3CCNC(=O)C3)cc2s1`, -8.64%; as for `Cc1noc(C2CCCN(Cn3cc(Cl)cn3)C2)n1` (configuration not stated), -1.46%.
In the case of `Cc1noc(C2CCCN(Cn3cc(Br)cn3)C2)n1` (configuration not stated), the cytotoxicity at 70.5 h was -8.2%.
As for `CC(NC(=O)N1CCCN(C)CC1)c1ccc2c(c1)OCCO2` (configuration not stated), the figure is -6.8%.
As for `CN(C)c1nc2sc(C(=O)N3CCNC(=O)CC3)cc2s1`, the figure is -10.2%; as for `O=C(C1CC(c2ccccc2)=NO1)N1CCCCc2ccccc21` (configuration not stated), -7.24%; as for `CC(NCc1cnc(N2CCOCC2)s1)c1ccc(Cl)s1` (configuration not stated), -7.8%.
`Cc1ccc(N2CCCC(Nc3nn4cc(C)nc4s3)C2)nn1` (configuration not stated): the cytotoxicity at 70.5 h is -9.29%.
For the molecule `Clc1ccc2cccnc2c1CNC1CCc2ncnn2C1` (configuration not stated), the cytotoxicity at 70.5 h was -5.27%.
As for `Cc1cc(C[S+]([O-])Cc2ccccc2F)on1` (configuration not stated), the cytotoxicity at 70.5 h was -8.66%.
Regarding `CSc1ccc(NC(=O)Cn2cc(NC(C)=O)cn2)cc1`, the cytotoxicity at 70.5 h was -7.71%.
The same measure for `CN(C)c1ccc(C(=O)Nc2ccn(Cc3ccccn3)n2)cn1`: 14.6%; for `COC(=O)CC1CSCCN1C(=O)CCc1c(C)nn(C)c1C` (configuration not stated): -7.68%; for `CCCC(=O)Nc1cnn(CC(=O)Nc2ccc(SC)cc2)c1`: -5.62%.
Regarding `CC1(NC(=O)CNC(=O)C(C)(C)C)CCc2ccccc2C1` (configuration not stated), the cytotoxicity at 70.5 h was -7.61%.
For the molecule `CC(C)COc1cncc(N(C)C2CCN(c3ncccn3)CC2)n1`, the cytotoxicity at 70.5 h is -12%.
As to `CC(C)Cn1ncc(C(=O)NS(=O)(=O)C2CCCC2)c1C1CC1`, the cytotoxicity at 70.5 h is -8.4%.
Consider `CCN(C(=O)CN1CCCN(c2nc(C)ns2)CC1)C1CC1`, for which the cytotoxicity at 70.5 h was -3.69%.
Consider `CCS(=O)(=O)N1CCCN(CCCOC)CC1`, for which the cytotoxicity at 70.5 h is -6.15%.
Take `Cc1cnn(C2CN(CCOc3cccc(C#N)c3)C2)c1`: the cytotoxicity at 70.5 h was -5.43%.
Consider `Cn1c(SCc2noc(-c3ccsc3)n2)nnc1C1CCS(=O)(=O)C1` (configuration not stated), for which the cytotoxicity at 70.5 h was -4.08%.
In the case of `Cc1noc(C)c1C(=O)NCCc1cccs1`, the cytotoxicity at 70.5 h is 0.104%.
For the molecule `COc1ccc(CN2CCCN(c3cc(C(N)=O)ccn3)CC2)cc1`, the cytotoxicity at 70.5 h stood at 9.62%.
As for `COc1cccc(COCC(=O)NC(C(N)=O)c2ccccc2)c1` (configuration not stated), the figure is 3.41%.
Regarding `Cc1c(-c2ccncc2)n[nH]c1NC(=O)CCOC(C)C`, the cytotoxicity at 70.5 h was -4.44%.
As for `CNS(=O)(=O)c1ccccc1N1CCN(C(C)C(N)=O)CC1` (configuration not stated), the cytotoxicity at 70.5 h is -3.93%.
As to `CNS(=O)(=O)c1ccccc1N1CCN(C(=O)NC(C)C)CC1`, the cytotoxicity at 70.5 h was -5.21%.
Take `CC(C)N1CCC(NC(=O)NCCC(=O)NCc2ccccc2)C1` (configuration not stated): the cytotoxicity at 70.5 h is 10.4%.
The same measure for `CCc1noc(C)c1C(=O)N1CCN(c2nc(C)cc(OC)n2)CC1`: 5.53%; for `CNS(=O)(=O)c1ccccc1N1CCN(C(C)C(=O)OC)CC1` (configuration not stated): -3.28%.
With `CNC(=O)COc1ccccc1CNC1CCc2nc(C)nn2C1` (configuration not stated), the cytotoxicity at 70.5 h was -6.32%.
For `CCN1CCN(C2CCN(Cc3ccc(Cl)s3)CC2)C1=O`, the cytotoxicity at 70.5 h is 1.3%.
Regarding `CC(C)(C)C(=O)NCCC(=O)NS(=O)(=O)c1cccc(C#N)c1`, the cytotoxicity at 70.5 h is 15.8%.
`CN1CCN(C2CCN(Cc3ccc(Cl)s3)CC2)C1=O`: the cytotoxicity at 70.5 h is -0.237%.
Regarding `Cc1cc(C2CCCN(C(=O)COc3ccccc3F)C2)n[nH]1` (configuration not stated), the cytotoxicity at 70.5 h stood at 12.5%.
Regarding `CCCN(C(=O)c1ccc(-n2ccnn2)cc1)c1cccnc1`, the cytotoxicity at 70.5 h is -3.08%.
As to `CN(Cc1ncnn1C)C(=O)CCCn1ccc2cc(Cl)ccc21`, the cytotoxicity at 70.5 h was -1.32%.
Consider `O=C(c1ccc(-n2ccnn2)cc1)N(CC1CC1)c1cccnc1`, for which the cytotoxicity at 70.5 h was found to be 5.29%.
As to `Cc1ccccc1CCCN1C(=O)CC2(CCSC2)C1=O` (configuration not stated), the cytotoxicity at 70.5 h is 2.27%.
On to `Cc1nc(CN2CCC(C(=O)N(C)C3CCC(C)CC3)CC2)cs1` (configuration not stated), for which the cytotoxicity at 70.5 h was -3.95%.
The same measure for `Cc1cc2n(n1)CC(CNC1CCN(C(=O)C3CC3)CC1)CN2` (configuration not stated): 16.7%; for `COc1ccnc(N2CCN(C(=O)c3cc(C4CC4)[nH]n3)CC2)n1`: -5.93%; for `CC(C)c1cc(C(=O)N2CCCN(Cc3ccccc3)CC2)n[nH]1`: -5.87%.
For `Cc1ccc(CNC(=O)NC2CCN(CC(F)F)CC2)cc1`, the cytotoxicity at 70.5 h was -4.96%.
As to `Cc1noc(CCCC(=O)NC(C)c2nnc3n2CCCCC3)n1` (configuration not stated), the cytotoxicity at 70.5 h was -1.92%.
The same measure for `COc1ccnc(N2CCN(C(=O)c3cscn3)CC2)n1`: -2.19%; for `Cc1cc2n(n1)CC(CNC1CCN(c3ccccn3)CC1)CN2` (configuration not stated): -0.0737%.
With `Cc1nc(CN2CCC(CNC(=O)CCC3CCCC3)CC2)oc1C`, the cytotoxicity at 70.5 h is -2.1%.
Take `CC(C)(C)S(=O)(=O)CCNC(=O)c1cnc(-c2ccccc2)nc1`: the cytotoxicity at 70.5 h was -0.525%.
On to `Cc1nc(CN2CCC(CNC(=O)C3(C#N)CCCC3)CC2)oc1C`, for which the cytotoxicity at 70.5 h is -5.03%.
As to `CCOc1ccc(NS(=O)(=O)c2cc(C)c(C(=O)O)s2)c(C)c1`, the cytotoxicity at 70.5 h was -3.91%.
As for `O=C(NCc1cccc(-n2cncn2)c1)NCC(C1CC1)C1CC1`, the cytotoxicity at 70.5 h was -5.02%.
In the case of `CCC(CC)c1cc(CNC(=O)N2CCCC(C(=O)NC)C2)on1` (configuration not stated), the cytotoxicity at 70.5 h is -0.471%.
Regarding `Cc1cnn(CC2CN(CCS(=O)(=O)C(F)(F)F)CCO2)c1` (configuration not stated), the cytotoxicity at 70.5 h amounted to 23.8%.
For `c1cc(CNCc2ccnc(N3CCCC3)c2)c2c(c1)OCO2`, the cytotoxicity at 70.5 h was -6.8%.
On to `CC1CN(c2cc(CNCc3cccc4c3OCCO4)ccn2)CCO1` (configuration not stated), for which the cytotoxicity at 70.5 h was -10.3%.
The same measure for `COc1ccc(C(=O)O)c(OCC(=O)NC(C)c2ccc(F)cc2)c1` (configuration not stated): -6.92%; for `c1cc(CNCc2ccnc(N3CCOCC3)c2)c2c(c1)OCCCO2`: -9.7%.
For the molecule `Cc1nc(CNC(=O)[C@@H]2CCCN2C(=O)OC(C)(C)C)cs1`, the cytotoxicity at 70.5 h is -7.16%.
`Cc1cn(CC(=O)NC2CCN(CC3CC3)CC2)c2ccccc12`: the cytotoxicity at 70.5 h was -9.9%.
As for `CC(C)(C)OC(=O)N1CCCCC1C(=O)NCc1cc[nH]n1` (configuration not stated), the figure is -7.48%.
For the molecule `N#Cc1ccnc(N2CCN(CC(O)c3ccc(F)c(F)c3)CC2)c1` (configuration not stated), the cytotoxicity at 70.5 h was -2.47%.
With `N#Cc1ccnc(N2CCN(CC(O)c3ccc(F)cc3)CC2)c1` (configuration not stated), the cytotoxicity at 70.5 h is -0.587%.
Regarding `O=C(Nc1cccc(N2CCN(CC3CC3)CC2)c1)C1CCOC1` (configuration not stated), the cytotoxicity at 70.5 h is -4.69%.
`Cc1cn(CC(=O)NCC(=O)NC2CC2)c2ccccc12`: the cytotoxicity at 70.5 h was -0.742%.
Regarding `O=C(Nc1cccc(N2CCN(CC3CC3)CC2)c1)C1CCCO1` (configuration not stated), the cytotoxicity at 70.5 h was 17%.
As for `O=S(=O)(CCCN1CCOC(Cn2cccn2)C1)c1ccccc1` (configuration not stated), the figure is 2.06%.
With `Cc1cn(CC(=O)NC2CCN(C(C)C)CC2)c2ccccc12`, the cytotoxicity at 70.5 h was -1.25%.
The same measure for `CNC(=O)CN1CCC(NC(=O)Cn2cc(C)c3ccccc32)CC1`: 0.492%.
Consider `Cc1cnn(CC2CN(CCCS(C)(=O)=O)CCO2)c1` (configuration not stated), for which the cytotoxicity at 70.5 h is -0.801%.
Take `N#Cc1ccnc(N2CCN(CC(O)c3c(F)cccc3F)CC2)c1` (configuration not stated): the cytotoxicity at 70.5 h came out at 15.3%.
Take `O=C(NC1CCS(=O)(=O)C1)c1sccc1OC(F)F` (configuration not stated): the cytotoxicity at 70.5 h was determined as 0.608%.
For the molecule `CN1CCN(C(=O)C2CCCc3[nH]ncc32)CC1` (configuration not stated), the cytotoxicity at 70.5 h is -1.9%.
With `Cc1ccc2c(c1)C(NCc1nnc3n1CCCCC3)CCCO2` (configuration not stated), the cytotoxicity at 70.5 h is 11.8%.
As for `Cc1cnc(NC(=O)N2CCOCC2)s1`, the cytotoxicity at 70.5 h was -2.62%.
As for `Cc1cnc(NC(=O)N2CCCCCC2)s1`, the cytotoxicity at 70.5 h was -4.75%.
In the case of `CCN(CC(=O)NC(C)C)S(=O)(=O)N1CCCCC1C` (configuration not stated), the cytotoxicity at 70.5 h is -3.14%.
As to `Cc1noc(C)c1CN1CCN(C(=O)CCn2cncn2)CC1`, the cytotoxicity at 70.5 h is -6%.
As to `CSCC(C)(O)CNC(=O)c1ccc(F)cc1Br` (configuration not stated), the cytotoxicity at 70.5 h was -4.95%.
The same measure for `CCc1c(C)[nH]c(C2(N)CCCC2)nc1=O`: -2.07%; for `Cc1nc(C)c(C(C)NCc2cnc(N3CCOCC3)nc2)s1` (configuration not stated): 19.8%.
As for `c1cc(CNCc2ccnc(N3CCOCC3)c2)c2c(c1)OCO2`, the cytotoxicity at 70.5 h is -8.43%.
As for `COc1c(CNC2CCOc3c(Cl)cccc32)c(C)nn1C` (configuration not stated), the figure is 12.2%.
